Reference: article PMC12469269, “Investigating SMR Peptide Interactions with Breast Cancer-Associated Proteins” (International Journal of Molecular Sciences, 2025)

Columns and labels:
Jurkat T cells = test: exNef secretion, Mortalin scanning peptides (Figure 5A), Jurkat T cells; format: cell-based; settings: for Jurkat GFP (exNef secretion): 50 ng / 200 μL peptide, 250 ng Nef-GFP plasmid, GFP fluorescence in media, SMRmut = 100, mean of three independent experiments
Method: To determine whether Mortalin-derived peptides can inhibit the secretion of extracellular Nef (exNef), Jurkat T cells were co-transfected with wild-type Nef-GFP and various scanning peptides derived from the substrate-binding domain of Mortalin (#56–#67). SMRwt and SMRmut peptides were included as positive and negative controls, respectively. After 48 h of incubation, GFP fluorescence in the culture media was measured as a proxy for exNef secretion.
(§1) Figure 5 Effects of Mortalin-derived peptides on inhibition of exNef and tumor exosome secretion. (A) Jurkat T cells were co-transfected with 250 ng of wild-type Nef-GFP plasmid and 50 ng of Mortalin-derived scanning peptides (#56–#67), including SMRwt and SMRmut as positive and negative controls. After 48 h, GFP fluorescence in culture media was measured to assess exNef secretion. Data represent mean ± SD from three independent experiments. Statistical significance was determined using a two-sample t-test assuming equal variances. (B) MDA-MB-231 cells were transfected with 50 ng of Mortalin-derived scanning peptides (#56–#67), including SMRwt and SMRmut controls. Cells were labeled with N-Rh-PE and incubated for 48 h. N-Rh-PE fluorescence in culture media was measured to assess exosome secretion. Data represent mean ± SD from three independent experiments. Statistical significance was determined using a two-sample t-test assuming equal variances. TEXT PRINTED IN THE PICTURE: (A) #56: Jurkat GFP (%): 117.84 (50 ng / 200 μL) | (A) #57: Jurkat GFP (%): 96.69 (50 ng / 200 μL) | (A) #58: Jurkat GFP (%): 91.89 (50 ng / 200 μL) | (A) #59: Jurkat GFP (%): 95.49 (50 ng / 200 μL) | (A) #60: Jurkat GFP (%): 98.25 (50 ng / 200 μL) | (A) #61: Jurkat GFP (%): 0.65 (50 ng / 200 μL) | (A) #62: Jurkat GFP (%): 0.51 (50 ng / 200 μL) | (A) #63: Jurkat GFP (%): 98.02 (50 ng / 200 μL) | (A) #64: Jurkat GFP (%): 95.37 (50 ng / 200 μL) | (A) #65: Jurkat GFP (%): 96.34 (50 ng / 200 μL) | (A) #66: Jurkat GFP (%): 92.28 (50 ng / 200 μL) | (A) #67: Jurkat GFP (%): 99.56 (50 ng / 200 μL) | (A) SMRwt: Jurkat GFP (%): 0.51 (50 ng / 200 μL) | (A) SMRmut: Jurkat GFP (%): 100 (50 ng / 200 μL) | (B) #56: MDA-MB-231 N-Rh-PE (%): 66.31 (50 ng / 200 μL) | (B) #57: MDA-MB-231 N-Rh-PE (%): 79.73 (50 ng / 200 μL) | (B) #58: MDA-MB-231 N-Rh-PE (%): 68.11 (50 ng / 200 μL) | (B) #59: MDA-MB-231 N-Rh-PE (%): 67.81 (50 ng / 200 μL) | (B) #60: MDA-MB-231 N-Rh-PE (%): 72.32 (50 ng / 200 μL) | (B) #61: MDA-MB-231 N-Rh-PE (%): 7.53 (50 ng / 200 μL) | (B) #62: MDA-MB-231 N-Rh-PE (%): 5.36 (50 ng / 200 μL) | (B) #63: MDA-MB-231 N-Rh-PE (%): 75.39 (50 ng / 200 μL) | (B) #64: MDA-MB-231 N-Rh-PE (%): 73.49 (50 ng / 200 μL) | (B) #65: MDA-MB-231 N-Rh-PE (%): 81.65 (50 ng / 200 μL) | (B) #66: MDA-MB-231 N-Rh-PE (%): 81.79 (50 ng / 200 μL) | (B) #67: MDA-MB-231 N-Rh-PE (%): 89.82 (50 ng / 200 μL) | (B) SMRwt: MDA-MB-231 N-Rh-PE (%): 6.11 (50 ng / 200 μL) | (B) SMRmut: MDA-MB-231 N-Rh-PE (%): 100 (50 ng / 200 μL)
To identify peptide sequences within Mortalin that modulate extracellular vesicle (EV) secretion, a panel of scanning peptides was synthesized and tested in Jurkat T cells. The peptides, listed in Table 1, were custom-synthesized with an average purity of 75% and used in transfection assays to evaluate their impact on EV release. Jurkat T cells (3 × 10^5) were co-transfected with 50 ng of individual Mortalin peptides […] 250 ng of wild-type Nef-GFP plasmid using Chariot™ transfection reagent. Transfection efficiency was confirmed by fluorescence microscopy after 48 h. EV secretion was assessed by measuring GFP fluorescence in the culture media, and statistical analysis was performed using unpaired two-factor t-tests (p < 0.05). Panel of Mortalin scanning peptides developed and tested for their effect EV secretion and Table S2. Mortalin Scanning Peptides Used in Transfection Assays, see the Supplementary Information. […]

MDA-MB-231 cells = test: Tumor exosome secretion, Mortalin scanning peptides (Figure 5B), MDA-MB-231; format: cell-based, human; settings: 48 h; for MDA-MB-231 N-Rh-PE (exosome secretion): 50 ng / 200 μL peptide, transfected, N-Rh-PE fluorescence in media, SMRmut = 100, mean of three independent experiments
Method: as §1
To assess the effect of Mortalin-derived peptides on tumor exosome secretion, MDA-MB-231 breast cancer cells were transfected with the same panel of scanning peptides and labeled with N-Rh-PE to track exosome release. Following incubation, N-Rh-PE fluorescence in the culture media was measured as a proxy for extracellular exosome levels. SMRwt and SMRmut peptides were again used as controls. […] Statistical analysis confirmed significant differences: SMRmut vs. #61 (p < 7.20 × 10^−7), SMRmut vs. #62 (p < 5.70 × 10^−7), and SMRmut vs. SMRwt (p < 5.96 × 10^−7).

| Substance | Jurkat GFP (exNef secretion) (Jurkat T cells; 48 h) [%] | cluster formation / potential peptide aggregation (Jurkat T cells; Jurkat exNef experiment) | p, SMRmut vs. peptide, exNef secretion (Jurkat T cells; two-sample t-test assuming equal variances, 50 ng peptide, 48 h) | MDA-MB-231 N-Rh-PE (exosome secretion) (MDA-MB-231 cells) [%] | p, SMRmut vs. peptide, exosome secretion (MDA-MB-231 cells; two-sample t-test assuming equal variances, 50 ng peptide) |
| --- | --- | --- | --- | --- | --- |
| DQLPADECNKLKEEISKMRE [#61, Mortalin scanning peptide 61] | 0.65 | formed small clusters | < 1.47 × 10^−13 | 7.53 | < 7.20 × 10^−7 |
| ^66Ala-Gly-Phe-Pro-Val^70 [SMRmut, 5-mer negative control, Val66 changed to Ala] | 100 |  |  | 100 |  |
